Patent publication US20070190172A1, “Enhanced activity biocidal hydrogen peroxide composition” (ASEPTIX TECHNOLOGIES B.V., priority 2006, published 2007)

Tests used:
Adenovirus = test: EN 14476 virucidal quantitative suspension test; assay type: cell-based
Protocol: (§1) In a similar way, fungicidal and virucidal activity was tested using tests dedicated for use with fungi of viruses. For fungi or yeasts, the tests according to European norms EN 1275, EN 1650 or EN 13624 were used. For viruses, the test according to European norm EN 14476 was used.
(§2) A composition comprising 2% H2O2 and 1% Monafax 1214 was prepared and tested against Vacciniavirus, Feline Calici Virus and Adenovirus according to the […] norm:
(§3) EN 14476—Chemical disinfectants and antiseptics—Virucidal quantitative suspension test for chemical disinfectants and antiseptics used in human medicine—Test methods and requirements (phase 2/step 1).

Feline Calici Virus = test: EN 14476 virucidal quantitative suspension test; assay type: cell-based
Protocol: as §1, §2, §3

Staphylococcus aureus [1] = conditions: background statement; cited from earlier work
Staphylococcus aureus [2] = test: EN 1276 bactericidal suspension test; assay type: cell-based; conditions: 1.2% H2O2 + 0.6% surfactant
Excerpt: (§4) Biocidal activity of a composition for use according to the invention is preferably determined by a controlled bactericidal suspension test conform European Norm for chemical disinfectants and antiseptics EN 1276 (EN 1276: Quantitative suspension test for the evaluation of bactericidal activity of chemical disinfectants and antiseptics used in food, industrial, domestic, and institutional areas: test method and requirements). An effective biocidal composition is a composition that provides at least a log 3 reduction after a 1 minute contact time with a Staphylococcus aureus test suspension of 10^8 cfu per ml, preferably at least a log 4 reduction, more preferably at least a log 5 reduction, most preferably at least a log 6 reduction.
(§5) Bactericidal activity of the exemplified compositions was tested using a controlled bactericidal suspension test conform European Norm for chemical disinfectants and antiseptics EN 1276 (EN 1276: Quantitative suspension test for the evaluation of bactericidal activity of chemical disinfectants and antiseptics used in food, industrial, domestic, and institutional areas: test method and requirements). One ml of a test suspension containing about 10^8 cfu of the test microorganism per ml is added to 8 ml of the composition to be tested, and 1 ml milli-Q water is added. In some experiments, a protein load was added to this suspension according to the EN 1276 procedures to simulate unclean practical conditions. To provide for a clean condition 0.3% Bovine Albumin was added and for a dirty condition 3% Bovine Albumin.
(§6) After 1, 2 and 5 minutes contact time, the amount of viable bacteria was determined.

Bacillus cereus = test: EN 1276 bactericidal suspension test; assay type: cell-based; conditions: 1.2% H2O2 + 0.6% surfactant
Excerpt: as §4, §5, §6
(§7) To simulate unclean practical conditions, a protein load was added according to the EN 1276 procedures to bacterial test suspensions. To provide for a clean condition 0.3% Bovine Albumin was added and for a dirty condition 3% Bovine Albumin. The performance of Monafax 1214 was compared with that of the N,N-Dimethyldecylamine-N-oxide (Barlox 10s of Lonza Ltd.). A H2O2 concentration of 1.2% was used and a 0.6% of the respective surfactants. The solution containing Monafax has a pH of around 2.3 and the solution containing Barlox 10s has a pH of around 5.

Candida albicans = test: EN 1276 bactericidal suspension test; assay type: cell-based; conditions: 1.2% H2O2 + 0.6% surfactant
Excerpt: as §4, §5, §6, §7

Enterococcus hirae = test: EN 1276 bactericidal suspension test; assay type: cell-based; conditions: 1.2% H2O2 + 0.6% surfactant
Excerpt: as §4, §5, §6, §7

Lysteria monocytogenes = test: EN 1276 bactericidal suspension test; assay type: cell-based; conditions: 1.2% H2O2 + 0.6% surfactant
Excerpt: as §4, §5, §6, §7

[3] = clean condition 0.3% Bovine Albumin, 2 min
[4] = clean condition 0.3% Bovine Albumin, 5 min
[5] = dirty condition 3% Bovine Albumin, 2 min
[6] = dirty condition 3% Bovine Albumin, 5 min

Which “log reduction, 5 minutes” value (Adenovirus) does the source give for `OO` [2% H2O2, hydrogen peroxide] here?
Its value is “log 0.6”.

And the “log reduction, 10 minutes” value (Adenovirus)?
Its value is “log 0.6”.

What about the “log reduction, 3 minutes” value (Feline Calici Virus) of the same molecule?
The value was “log 0.2”.

And the “log reduction, 5 minutes” value (Feline Calici Virus)?
The value was “log 0.9”.

Which “log reduction, 5 minutes” value (Adenovirus) does the source give for `OO` [3% H2O2, hydrogen peroxide] here?
Its value is “log 0.5”.

And the “log reduction, 10 minutes” value (Adenovirus)?
Its value is “log 0.6”.

For `OO` [3% w/w hydrogen peroxide, hydrogen peroxide], which “time to achieve a greater than 6 log reduction in Staphylococcus aureus” value (Staphylococcus aureus [1]) is on record?
Its value is 20 minutes.

Which “number of colonies, clean, 2 min” value (Staphylococcus aureus [2]; [3]) does the source give for `CCCCCCCCCC[N+](C)(C)[O-]` [Barlox 10s (Lonza), N,N-Dimethyldecylamine-N-oxide] here?
Its value is >300.

What about the “number of colonies, clean, 5 min” value (Staphylococcus aureus [2]; [4]) of the same molecule?
Its value is >300.

And the “number of colonies, dirty, 2 min” value (Staphylococcus aureus [2]; [5])?
Its value is >300.

And the “number of colonies, dirty, 5 min” value (Staphylococcus aureus [2]; [6])?
The value was >300.

What about the “number of colonies, clean, 2 min” value (Bacillus cereus; [3]) of the same molecule?
The value was >300.

And the “number of colonies, clean, 5 min” value (Bacillus cereus; [4])?
The value was >300.

And the “number of colonies, dirty, 2 min” value (Bacillus cereus; [5])?
The value was >300.

What about the “number of colonies, dirty, 5 min” value (Bacillus cereus; [6]) of the same molecule?
The value was >300.

And the “number of colonies, clean, 2 min” value (Candida albicans; [3])?
The value was 300.

And the “number of colonies, clean, 5 min” value (Candida albicans; [4])?
The value was 250.

And the “number of colonies, dirty, 2 min” value (Candida albicans; [5])?
Its value is >300.

What about the “number of colonies, dirty, 5 min” value (Candida albicans; [6]) of the same molecule?
Its value is >300.

What about the “number of colonies, clean, 2 min” value (Enterococcus hirae; [3]) of the same molecule?
Its value is 8.

And the “number of colonies, clean, 5 min” value (Enterococcus hirae; [4])?
Its value is 0.

What about the “number of colonies, dirty, 2 min” value (Enterococcus hirae; [5]) of the same molecule?
Its value is 6.

What about the “number of colonies, dirty, 5 min” value (Enterococcus hirae; [6]) of the same molecule?
The value was 1.

And the “number of colonies, clean, 2 min” value (Lysteria monocytogenes; [3])?
The value was >300.

And the “number of colonies, clean, 5 min” value (Lysteria monocytogenes; [4])?
The value was >300.

And the “number of colonies, dirty, 2 min” value (Lysteria monocytogenes; [5])?
Its value is >300.

What about the “number of colonies, dirty, 5 min” value (Lysteria monocytogenes; [6]) of the same molecule?
The value was >300.

With `OO` [hydrogen peroxide] as the molecule, how does the “time to achieve a greater than log 6 reduction in Staphylococcus aureus” value (Staphylococcus aureus [1]) read?
Its value is 20 seconds.
